Data: US11851391B2, “Antifungal compounds and methods of forming the same” (University of Kentucky Research Foundation, priority 2018, dated 2023)
≈ marks a conversion by molar mass, not a printed value. Where two headings read alike, the source gives them in different places.

Experiments:
[1] = test system: Candida parapsilosis ATCC 22019 (strain J); test: MIC determination, in vitro antifungal assay (CLSI M27-A3); assay type: cell-based; settings: strain J, MIC-0, 48 h at 35° C.
Experimental: (§1) The activity of N,N′-diaryl-bishydrazones 7-22 was tested against a panel of seven strains of C. albicans: ATCC 10231(R) (A), ATCC 64124(R) (B), ATCC MYA-2876(S) (C), ATCC 90819(R) (D), ATCC MYA-2310(S) (E), ATCC MYA-1237(R) (F), and ATCC MYA-1003(R) (G). The activity of these bishydrazones 7-22 was also explored against a panel of three non-albicans Candida strains: C. glabrata ATCC 2001 (H), C. krusei ATCC 6258 (I), and C. parapsilosis ATCC 22019 (J). Finally, the activity of these bishydrazones 7-22 was explored against three Aspergillus strains: A. flavus ATCC MYA-3631 (K), A. nidulans ATCC 38163 (L), and A. terreus ATCC MYA-3633 (M).
(§2) Candida albicans ATCC 10231 (A), C. albicans ATCC 64124 (B), and C. albicans ATCC MYA-2876 (C) were kindly provided by Dr. Jon Y. Takemoto (Utah State University, Logan, UT, USA). C. albicans ATCC 90819 (D), C. albicans ATCC MYA-2310 (E), C. albicans ATCC MYA-1237 (F), C. albicans ATCC MYA-1003 (G), Candida glabrata ATCC 2001 (H), Candida krusei ATCC 6258 (I), Candida parapsilosis ATCC 22019 (J), Aspergillus flavus ATCC MYA-3631 (K), and Aspergillus terreus ATCC MYA-3633 (M) were obtained from the American Type Culture Collection (ATCC; Manassas, VA, USA). Aspergillus nidulans ATCC 38163 (L) was received from Dr. Jon S. Thorson (University of Kentucky, Lexington, KY, USA). Filamentous fungi and yeasts were cultivated at 35° C. in RPMI 1640 medium (with 1-glutamine, without sodium biocarbonate, Sigma-Aldrich, St. Louis, MO) buffered to a pH of 7.0 with 0.165 M morpholinepropanesulfonic acid (MOPS) buffer (Sigma-Aldrich).
(§3) The MIC values of compounds 7a-24c against yeast cells (strains A-J) were determined in 96-well plates as described in the CLSI document M27-A3 with minor modifications. A single colony of freshly prepared yeast cells was used to inoculate 5 mL of yeast extract peptone dextrose (YPD) broth prior to incubation overnight with shaking at 200 rpm at 35° C. From the actively growing yeast culture, 100 μL were then transferred to 900 μL of sterile ddH2O and re-adjusted to achieve OD600 of 0.12 (˜1×10^6 CFU/mL). The cell suspension was further diluted to achieve 2-4×10^3 CFU/mL in RPMI 1640 medium. […] The final concentration of DMSO was ensured to be <1.25% in all experiments. The MIC values for compounds 7a-24c and CAS were defined as the minimum drug concentration that yielded complete inhibition (also known as MIC-0).

[2] = test system: Candida albicans ATCC 10231(R) (strain A); test: as above; assay type: cell-based; settings: MIC-0 (no visible growth), 48 h at 35° C.
Experimental: as §1, §2, §3

[3] = test system: C. albicans ATCC 90819(R) (strain D); test: as above; assay type: cell-based, Candida albicans; settings: Candida albicans, ATCC90819, 48 h, MIC-0, 48 h at 35° C., read-out: MIC
Experimental: as §1, §2, §3

[4] = test system: C. albicans ATCC 64124(R) (strain B); test: as above; assay type: cell-based, Candida albicans; settings: Candida albicans, ATCC64124, 48 h, strain B; MIC-0; 48 h at 35° C.; read-out: MIC
Experimental: as §1, §2, §3

[5] = test system: C. albicans ATCC MYA-2310(S) (strain E); test: as above; assay type: cell-based, Candida albicans; settings: Candida albicans, 48 h, MIC-0, 48 h at 35° C., read-out: MIC
Experimental: as §1, §2, §3

[6] = test system: C. albicans ATCC MYA-1237(R) (strain F); test: as above; assay type: cell-based, Candida albicans; settings: Candida albicans, 48 h, MIC-0, 48 h at 35° C., read-out: MIC
Experimental: as §1, §2, §3

[7] = test system: C. albicans ATCC MYA-2876(S) (strain C); test: as above; assay type: cell-based, Candida albicans; settings: Candida albicans, 48 h, MIC-0, 48 h at 35° C., read-out: MIC
Experimental: as §1, §2
(§4) A single colony of freshly prepared yeast cells was used to inoculate 5 mL of yeast extract peptone dextrose (YPD) broth prior to incubation overnight with shaking at 200 rpm at 35° C. From the actively growing yeast culture, 100 μL were then transferred to 900 μL of sterile ddH2O and re-adjusted to achieve OD600 of 0.12 (˜1×10^6 CFU/mL). The cell suspension was further diluted to achieve 2-4×10^3 CFU/mL in RPMI 1640 medium. […] The final concentration of DMSO was ensured to be <1.25% in all experiments.

[8] = test system: C. albicans ATCC MYA-1003(R) (strain G); test: as above; assay type: cell-based, Candida albicans; settings: Candida albicans, 48 h, MIC-0, 48 h at 35° C., read-out: MIC
Experimental: as §1, §2, §4

[9] = test system: Candida glabrata ATCC 2001 (strain H); test: as above; assay type: cell-based; settings: Nakaseomyces glabratus, ATCC2001, 48 h, MIC-0, 48 h at 35° C., read-out: MIC
Experimental: as §1, §2, §4

[10] = test system: Candida krusei ATCC 6258 (strain I); test: as above; assay type: cell-based; settings: MIC-0, 48 h at 35° C.
Experimental: as §1, §2, §4

[11] = test system: Aspergillus terreus ATCC MYA-3633 (strain M); test: MIC determination against filamentous fungi (CLSI M38-A2); assay type: cell-based; settings: Aspergillus terreus, 48 h, MIC-0, 48 h at 35° C., read-out: MIC
Experimental: as §1, §2
(§5) Similarly, the MIC values of compounds 7a-24c, as well as that of the two control drugs against filamentous fungi (strains K-M) were determined as previously described in CLSI document M38-A2. Spores were harvested from sporulating cultures growing on potato dextrose agar (PDA) by filtration through sterile glass wool and enumerated by using a hemocytometer to obtain the desired inoculum size. […] Spore suspensions were added to the wells to afford a final concentration of 5×10^5 CFU/mL. The plates were incubated at 35° C. for 48 h. The MIC values of compounds 7a-24c and CAS against filamentous fungi were based on the complete inhibition of growth when compared to the growth control (MIC-0). […] Each test was performed in triplicate.

[12] = test system: Aspergillus nidulans ATCC 38163 (strain L); test: as above; assay type: cell-based; settings: MIC-0, 48 h at 35° C.
Experimental: as §1, §2, §5

[13] = test system: Aspergillus flavus ATCC MYA-3631 (strain K); test: as above; assay type: cell-based; settings: MIC-0, 48 h at 35° C.
Experimental: as §1, §2, §5

[14] = test system: murine red blood cells (mRBCs); settings: for Percentage of hemolysis (±SDEV): mouse, 60 min
Experimental: Thus, the hemolytic activity for these bishydrazones was investigated against murine red blood cells (mRBCs).
Murine red blood cells (mRBCs) were prepared by suspending 1 mL of murine blood in 3 mL of PBS prior to centrifugation at 1,000 rpm for 5 min. The mRBCs were washed four times in PBS and resuspended in the same buffer to a final concentration of 10^7 mRBC/mL. […] The tubes were incubated at 37° C. for 60 min. […] Eppendorf tubes containing 200 μL of ddH2O and 2 μL of 1% v/v Triton™ X-100 served as negative (blank) and positive controls, respectively. The percentage of hemolysis was calculated using the following equation: % hemolysis=[(absorbance of sample)−(absorbance of blank)]×100/(absorbance of positive control).

[15] = test system: various yeast strains and filamentous fungi (strains A-M); test: Antifungal activity over the whole panel (summary of MIC data); assay type: cell-based, Candida and Aspergillus strains; settings: for antifungal activity (in words): over the fungal strains tested, based on MIC data of Table 1
Experimental: as §1, §3, §5

[16] = Lodderomyces parapsilosis, ATCC22019, 48 h, read-out: MIC
[17] = Candida albicans, ATCC10231, 48 h, read-out: MIC
[18] = Pichia kudriavzevii, ATCC6258, 48 h, read-out: MIC
[19] = Aspergillus nidulans, ATCC38163, 48 h, read-out: MIC
[20] = Aspergillus flavus, 48 h, read-out: MIC

| Structure (SMILES) | MIC [1, 16] [µg/mL] | MIC [2, 17] [µg/mL] | MIC [3] [µg/mL] | MIC [4] [µg/mL] | MIC [5] [µg/mL] | MIC [6] [µg/mL] | MIC [7] [µg/mL] | MIC [8] [µg/mL] | MIC [9] [µg/mL] | MIC [10, 18] [µg/mL] | MIC [11] [µg/mL] | MIC [12, 19] [µg/mL] | MIC [13, 20] [µg/mL] | hemolytic activity (in words) [14] | Percentage of hemolysis (±SDEV) ([14]; 0.975 μg/mL) [%] | Percentage of hemolysis (±SDEV) ([14]; 1.95 μg/mL) [%] | Percentage of hemolysis (±SDEV) ([14]; 3.9 μg/mL) [%] | Percentage of hemolysis (±SDEV) ([14]; 7.8 μg/mL) [%] | Percentage of hemolysis (±SDEV) ([14]; 15.6 μg/mL) [%] | Percentage of hemolysis (±SDEV) ([14]; 31.3 μg/mL) [%] | further results |
| --- | --- | --- | --- | --- | --- | --- | --- | --- | --- | --- | --- | --- | --- | --- | --- | --- | --- | --- | --- | --- | --- |
| C(=N\Nc1ccccc1)/c1ccc(-c2ccc(/C=N/Nc3ccccc3)cc2)cc1 [Compound 7b] | > 31.3 | 7.8 (≈ 20 µM) | 31.3 (≈ 80.2 µM) | > 31.3 | > 31.3 | > 31.3 | > 31.3 | > 31.3 | > 31.3 | > 31.3 | 15.6 (≈ 39.9 µM) | 1.95 to 3.9 (≈ 4.99 to 9.99 µM) | 1.95 to 3.9 (≈ 4.99 to 9.99 µM) | lack of hemolytic activity | 0.1 ± 0.1 | 3.7 ± 1.6 | 3.4 ± 1.7 | 2.9 ± 1.1 | 14.1 ± 6.0 | 10.8 ± 0.6 | MIC [12]: 1.95 µg/mL (≈ 4.99 µM); MIC [13]: 3.9 µg/mL (≈ 9.99 µM) |
| COc1ccccc1N/N=C(\C)c1ccc(-c2ccc(/C(C)=N/Nc3ccccc3OC)cc2)cc1 [Compound 9c] | 31.3 (≈ 65.4 µM) | 15.6 (≈ 32.6 µM) | > 31.3 | > 31.3 | > 31.3 | > 31.3 | > 31.3 | 31.3 (≈ 65.4 µM) | > 31.3 | 31.3 (≈ 65.4 µM) | > 31.3 | > 31.3 | > 31.3 |  |  |  |  |  |  |  | MIC ([15]; against all fungal strains tested, with named exceptions, read-out: antifungal activity class based on MIC values): ≥ 31.3 µg/mL; MIC [2]: 15.6 µg/mL (≈ 32.6 µM) |
| Fc1cccc(N/N=C/c2ccc(-c3ccc(/C=N/Nc4cccc(F)c4)cc3)cc2)c1 [Compound 12b] | 3.9 (≈ 9.14 µM) | 7.8 to 15.6 (≈ 18.3 to 36.6 µM) | > 31.3 | > 31.3 | > 31.3 | > 31.3 | > 31.3 | > 31.3 | > 31.3 | 7.8 to 15.6 (≈ 18.3 to 36.6 µM) | > 31.3 | > 31.3 | 31.3 (≈ 73.4 µM) | lack of hemolytic activity | 0.8 ± 0.9 | 0 | 3.2 ± 3.0 | 2.6 ± 1.6 | 7.7 ± 3.1 | 10.3 ± 0.2 | MIC [1]: 3.9 µg/mL (≈ 9.14 µM); MIC [2]: 7.8 µg/mL (≈ 18.3 µM); MIC [10]: 15.6 µg/mL (≈ 36.6 µM) |
| N#Cc1ccc(N/N=C/c2ccc(-c3ccc(/C=N/Nc4ccc(C#N)cc4)cc3)cc2)cc1 [Compound 13b] | > 31.3 | > 31.3 | > 31.3 | > 31.3 | > 31.3 | > 31.3 | > 31.3 | 31.3 (≈ 71.1 µM) | > 31.3 | > 31.3 | 31.3 (≈ 71.1 µM) | > 31.3 | > 31.3 |  |  |  |  |  |  |  | antifungal activity (in words) [15]: inactive |
| CC(C)Oc1ccc(N/N=C/c2ccc(-c3ccc(/C=N/Nc4ccc(OC(C)C)cc4)cc3)cc2)cc1 [Compound 16b] | > 31.3 | > 31.3 | > 31.3 | > 31.3 | > 31.3 | > 31.3 | > 31.3 | > 31.3 | > 31.3 | > 31.3 | > 31.3 | > 31.3 | > 31.3 |  |  |  |  |  |  |  | antifungal activity (in words) [15]: inactive |
| N=C(N)N/N=C/c1ccc(-c2cccc(/C=N/NC(=N)N)c2)cc1 [Compound 24a] | 1.95 (≈ 6.05 µM) | 1.95 to 3.9 (≈ 6.05 to 12.1 µM) | > 31.3 | 3.9 (≈ 12.1 µM) | 3.9 (≈ 12.1 µM) | 7.8 (≈ 24.2 µM) | 3.9 (≈ 12.1 µM) | > 31.3 | 3.9 (≈ 12.1 µM) | 1.95 (≈ 6.05 µM) | 7.8 (≈ 24.2 µM) | 7.8 (≈ 24.2 µM) | > 31.3 | lack of hemolytic activity | 0 | 1.1 ± 2.2 | 1.2 ± 1.7 | 2.3 ± 0.5 | 3.8 ± 0.5 | 3.8 ± 1.7 |  |
